Laboratory results reported in patent publication US20130018039A1, “IMIDAZOLYL-IMIDAZOLES AS KINASE INHIBITORS” (priority 2010, published 2013).

Target: T1, RIPK2 (full length FLAG His tagged RIPK2; RIP2 kinase) (Homo sapiens, UniProt O43353)
T1 construct: Full length FLAG His tagged RIPK2 was purified from a Baculovirus expression system; FLAG (N); 6His (N); made in house; host or cells: Spodoptera frugiperda (Sf9) insect cells, baculovirus
Assay: Fluorescent polarization based binding assay, competition with a fluorescently labeled ATP competitive ligand at the ATP binding pocket of RIPK2
Settings: pIC50s averaged, minimum of 2 experiments; fluorescent ligand 5 nM; read-out: mean pIC50 (converted)
Excerpt: A fluorescent polarization based binding assay was developed to quantitate interaction of novel test compounds at the ATP binding pocket of RIPK2, by competition with a fluorescently labeled ATP competitive ligand. Full length FLAG His tagged RIPK2 was purified from a Baculovirus expression system and was used at a final assay concentration of twice the KDapparent. A fluorescent labeled ligand (5-({[2-({[3-({4-[(5-hydroxy-2-methylphenyl)amino]-2-pyrimidinyl}amino)phenyl]carbonyl}amino)ethyl]amino}carbonyl)-2-(6-hydroxy-3-oxo-3H-xanthen-9-yl)benzoic acid, prepared as described below) was used at a final assay concentration of 5 nM. Both the enzyme and ligand were prepared in solutions in 50 mM HEPES pH7.5, 150 mM NaCl, 10 mM MgCl2, 1 mM DTT, and 1 mM CHAPS. Test compounds were prepared in 100% DMSO and […] was dispensed to individual wells of a multiwell plate. Next, 5 ul RIPK2 was added to the test compounds at twice the final assay concentration, and incubated at room temperature for 10 minutes. […] Finally, samples were read on an instrument capable of measuring fluorescent polarization. Test compound inhibition was expressed as percent (%) inhibition of internal assay controls.
For concentration response experiments, normalized data were fit and pIC50s determined using conventional techniques. […]

T1 sequence (O43353 whole entry): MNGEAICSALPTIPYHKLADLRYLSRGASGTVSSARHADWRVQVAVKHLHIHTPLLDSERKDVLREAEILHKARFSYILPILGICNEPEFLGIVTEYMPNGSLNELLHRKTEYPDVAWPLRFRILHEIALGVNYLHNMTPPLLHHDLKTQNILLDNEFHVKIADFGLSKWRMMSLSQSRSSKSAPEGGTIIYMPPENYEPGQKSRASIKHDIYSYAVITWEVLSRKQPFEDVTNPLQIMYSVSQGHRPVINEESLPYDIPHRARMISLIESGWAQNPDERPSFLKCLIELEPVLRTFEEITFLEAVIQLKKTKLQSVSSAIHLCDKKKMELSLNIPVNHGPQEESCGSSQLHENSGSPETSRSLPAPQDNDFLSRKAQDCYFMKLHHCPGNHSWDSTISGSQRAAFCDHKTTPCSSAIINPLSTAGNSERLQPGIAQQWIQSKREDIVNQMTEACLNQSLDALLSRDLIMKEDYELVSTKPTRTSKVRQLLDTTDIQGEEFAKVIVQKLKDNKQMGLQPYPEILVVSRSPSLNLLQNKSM

| SMILES | IC50 [µM] |
| --- | --- |
| COCCNC(=O)c1ccc2c(c1)nc(-c1cnc(-c3ccccc3)[nH]1)n2CCOC [Example 39, N,1-bis[2-(methyloxy)ethyl]-2-(2-phenyl-1H-imidazol-4-yl)-1H-benzimidazole-5-carboxamide] | 10 |
| CNC(=O)c1ccc2c(c1)nc(-c1c[nH]c(-c3ccc(Cl)cc3)n1)n2Cc1ccccn1 [Example 2, 2-[2-(4-chlorophenyl)-1H-imidazol-4-yl]-N-methyl-1-(2-pyridinylmethyl)-1H-benzimidazole-5-carboxamide] | 10 |
